Tests used:
skin grafts = experiment: Apoptotic cells in skin grafts (Hoechst staining / in situ TUNEL); assay type: cell-based, human
Experimental: FIG. 4. Appearance of skin grafts untreated or treated with coenzyme Q10 and stained with in situ TUNEL.
FIG. 5. Number of apoptotic cells in skin grafts untreated or treated with coenzyme Q10 and stained with in situ TUNEL. Values are expressed as percentage of total cells (living+dead cells).
Isolated adipocytes in suspension were fixed with 4% paraformaldehyde for 20 min at RT (room temperature), washed 3 times with PBS and permeabilized for 5 min with 0.25% Triton X-100 in PBS solution. Washes with PBS were repeated 3 times for 5 min each time and the cells were stained with Hoechst 33258 (Sigma) nuclear dye for 30 min at 37° C. followed by washing in PBS 3 times for 5 min.
(§1) The stained cells (10^4) were affixed to polylysine-treated glass slides by gentle cyto-centrifugation or by spreading the cellular film directly on the surface, of the glass slide and mounted. Nuclear staining was examined under Nikon fluorescence microscope (20× and 40× magnification) equipped with camera. The results are expressed as the percentage of apoptotic cells (number of apoptotic cells/100 counted cells) in 10 random fields, performed by 3 independent observers.

[1] = system: mitochondrial Permeability Transition Pore (mPTP); settings: in response to any apoptotic stimulus; cited from earlier work
caspase 9 = experiment: Quantification of caspase 9 in adipocytes by Western blotting and densitometry; assay type: cell-based, human
Experimental: (§2) Quantification of Apoptotic Factors (cytocrome c, caspase 3 and 9)
(§3) Adipocytes have been collected both manually using a “Luer-lock” 10 cc. syringe following Coleman's technique, and by a liposuctor with a negative pressure adjusted to maintain −680 mmHg. After the collection, half of the sample was treated with coenzyme Q10 dissolved in Lutrol (or another amphipathic molecule) at 10 μM concentration, as reported in previous works (1, 3). The other half of collected sample was treated with Lutrol (or another amphipathic molecule) alone. Both samples were then -centrifuged. The interphase and cell pellet were collected, following Coleman's technique (6) and maintained in liquid Nitrogen.
(§4) Preparation of protein cell lysates (6) is a modification of the -method described by Rioux (7).
(§5) Liposucted cell suspensions were centrifuged at 800 g for 10 minutes. 1 ml of lysis buffer (0.75 M NaCl, 10 mM HEPES, 1 mM EDTA, 1% Triton-X-100) containing a protease inhibitor mixture (final concentrations 1 μg/ml leupeptin, 10 μg/ml benzamidine, 1 μg/ml chymostatin, 1 μg/ml pepstatin A and 100 μg/ml PMSF) was added and the cell pellet was sonicated two times successively (20 sec, 100 W) to obtain whole cellular lysate. The lysate was further cleared by centrifugation at 10.000 g for 30 min in mini centrifuge. After removing the fat layer and the pellet of cellular debris, the protein content was quantified with Bradford reagent by spectrophotometry. Protein lysates (30 μg/lane) were separated by SDS-PAGE (10 and 15%) and analysed by Western blot analysis with specific antibodies.
(§6) Quantification of apoptotic factors was performed by densitometry.

adipocytes = experiment: Apoptotic events in adipocytes from explanted tissues; assay type: cell-based, human; settings: adipocytes maintained in the presence of coenzyme Q10
Experimental: Isolation of Adipocytes from Adipose Tissue
Modification of protocol described by Flower et al., Cytokine 21 (2003) 32-37.
For isolation, adipocyte tissue was quickly thawed, dissected with scissors into fine fragments in-digest solution consisting of Hank's buffer, supplemented with 2 mg/ml of collagenase (Type II, Sigma) and 1.5% BSA, and incubated at 37° C. for 1 hour in shaker-heater bath. The ratio of digest solution to adipose tissue was 4:1. The tissue digest was filtered through 200 μm Nylon mesh fabric in order to remove non digested tissue fragments. The adipocyte-containing layer and free oil were separated from the resulting stromovascular cell suspension by repeated centrifugation at 250×g for 5 minutes at 4° C. All the cells retrieved were morphologically typical mature adipocytes.
Detection of Apoptotic Adipocytes by Hoechst Staining […]
as §1

cytochrome C = experiment: Dosage of cytoplasmic cytochrome C in adipocytes by Western blotting; assay type: cell-based, human; settings: liposucted adipocytes, Western blot (FIG. 1)
Experimental: as §2, §3, §4
Liposucted cell suspensions were centrifuged at 800 g for 10 minutes. […] After removing the fat layer and the pellet of cellular debris, the protein content was quantified with Bradford reagent by spectrophotometry. Protein lysates (30 μg/lane) were separated by SDS-PAGE (10 and 15%) and analysed by Western blot analysis with specific antibodies.
as §6

cultured keratocytes = settings: excimer laser irradiation; cited from earlier work
caspase 3 = experiment: Quantification of caspase 3 in adipocytes by Western blotting and densitometry; assay type: cell-based, human
Experimental: as §2, §3, §4, §5, §6

[2] = adipocytes collected manually (Luer-lock syringe) and by liposuctor, 10 μM in Lutrol, vs untreated samples
[3] = adipocytes collected with Coleman's technique, added prior to centrifugation and purification
[4] = cells from explanted tissues after ex vivo treatments, in the presence of coenzyme Q10

COC1=C(OC)C(=O)C(C/C=C(\C)CC/C=C(\C)CC/C=C(\C)CC/C=C(\C)CC/C=C(\C)CC/C=C(\C)CC/C=C(\C)CC/C=C(\C)CC/C=C(\C)CCC=C(C)C)=C(C)C1=O [coenzyme Q10, 2.3-dimethoxy-5-methyl-6-multiprenyl-1.4-benzoquinone]
number of apoptotic events (skin grafts; cutaneous cells maintained in the presence of coenzyme Q10): significantly reduced | percentage of apoptotic cells (skin grafts; skin graft, glass slides of treated vs non treated cells (FIG. 4)): dramatically lower | cell morphology (skin grafts; skin graft, treated cells, non treated cells showed nuclear condensation and fragmentation): normal morphology of a living cell | number of apoptotic cells (skin grafts; skin grafts immersed in coenzyme Q10-saline solution (FIG. 5)): drastically decreased | disruption of mitochondrial transmembrane electrochemical gradient and opening of mPTP [1]: directly inhibits | reduction of caspase 9 activity compared to controls (FIG. 2) (caspase 9; [2]): ~50% | caspase 9 activity evaluated by Western blotting (caspase 9; [3]): dramatically reduced | reduction of caspase 9 level (caspase 9; [4]): more than 50% | number of apoptotic events (adipocytes): significantly reduced | translocation of cytochrome C to cytosol (cytochrome C): significantly inhibited | apoptosis (cultured keratocytes): able to inhibit apoptosis | reduction of caspase 3 activity compared to controls (FIG. 2) (caspase 3; [2]): ~50% | caspase 3 activity evaluated by Western blotting (caspase 3; [3]): dramatically reduced | reduction of caspase 3 level (caspase 3; [4]): more than 50%

From patent US20060127384A1, “Coenzyme Q10 as antiapoptotic agent” (priority 2004, published 2006)
